Laboratory results published in US20180049996A1, “THERAPEUTIC AGENT FOR CHRONIC RESPIRATORY DISEASE AND COMPOSITION FOR INHIBITING CARDIAC FIBROSIS” (NIPPON HYPOX LABORATORIES INCORPORATED, priority 2015, published 2018).
Marks after values point to notes of the source that are not given here.

Key:
[1] = test system: IL-4; experiment: IL-4 level in BAL fluid (ELISA), ovalbumin asthma model; format: in vivo, BALB/c female mice; settings: HTHQ 20 and 40 mg/kg/day oral; compared to OVA group
Description: (§1) 6 week old BALB/c female mice were purchased and the mice were divided into 5 groups with 5 animals per group shown in Table 3 below after habituation breeding of about 2 weeks.
(§2) The test was conducted on the schedule of sensitization, causing diseases and administration of test materials shown in FIG. 12. “IP” in FIG. 12 refers to ovalbumin sensitization treatment by the intraperitoneal administration of ovalbumin/aluminum hydroxide, and “IH” refers to inhalation exposure treatment of ovalbumin, and “PO” refers to the administration of the test materials. […]
(§3) All mice were euthanized by intraperitoneal injection of pentobarbital (Hanrimu pharmaceutical, South Korea) at 50 mg/kg and the bronchi were excised on day 25 of the test. […] After preparing slide samples from 100 μL of BAL cell fluid using Cytospin (4° C., 1000 rpm×5 min), the cell numbers of inflammatory cells (eosinophils, macrophages, lymphocytes and neutrophils) present in the BAL fluid were counted using a Diff-Quik stain kit.
The supernatant of the BAL fluid stored was taken out of the super-cryostat and IL-4, IL-5 and IL-13 levels were measured as the pro-inflammatory cytokine contents in the supernatant of the BAL fluid. A quantitative ELISA kit (a product from R&D systems) and a microplate reader (a product from Bio-Rad Laboratories, Inc.) were used for the measurement and the measurement wavelength was 450 nm.

[2] = test system: Myocardial Disorder Induced by Doxorubicin; experiment: Relative weights of the hearts, myocardial disorder induced by doxorubicin; format: in vivo, female SD rats; settings: Test group 2: doxorubicin 13 mg/kg + HTHQ 50 mg/kg oral
Excerpt: Doxorubicin is used to produce disease-model animals of cardiomyopathy. […] The recombinant human erythropoietin (rHuEPO) is mainly used in the treatment of renal anemia etc., and has the effect to protect myocardium. The test group 3 is used to confirm the presence or absence of the inhibitory effect brought about by combining HTHQ and rHuEPO on myocardial disorder. […] Recombinant human erythropoietin was daily administered to the rats in test group 3 starting from 3 days before the administration of doxorubicin by intravenous injection. The number of animals in each group was 16. 8 animals of each group were sacrificed after collecting blood on day 7 and 14 after the administration of doxorubicin, and the autopsy of the hearts, the calculation of the relative weights of the hearts, the histopathologic examination of the hearts and the hematological examination were conducted. Myocardium is hypertrophied by fibrosing and the weight of the myocardium increases, and the relative weight of the heart tends to increase. […] Also, there was no significant difference between the other groups on day 7 and 14 after the administration (p<0.05).

[3] = test system: allergic asthma model of mice caused by ovalbumin sensitization; experiment: BAL inflammatory cell numbers, allergic asthma model caused by ovalbumin sensitization; format: in vivo, BALB/c female mice; settings: HTHQ 20 and 40 mg/kg/day oral, days 18 to 23; day 25; compared to OVA group
Description: The efficacy of the hydroquinone derivative represented by the general formula (1) described above of the present invention on asthma was studied using an allergic asthma model of mice caused by ovalbumin sensitization.
as §1, §2, §3

## CCCCCCOc1cc(C)c(O)c(C)c1C [HTHQ, 2,3,5-trimethylhydroquinone-1-hexyl ether]
[1]
  IL-4 content in BAL fluid: significantly reduced
[2]; Day 7 after administration, p<0.05 vs Test group 1
  relative weight of the heart: 0.4208 ± 0.0409^a %
[2]; Day 14 after administration
  relative weight of the heart: 0.3658 ± 0.0357%
[3]
  inflammatory cell numbers in BAL fluid (eosinophils, macrophages, total): significantly reduced in an HTHQ dose-dependent manner
